The source of these data is the METLIN SMRT retention time set (Domingo-Almenara et al. 2019).

The nature of this data set: gradient 5% acetonitrile 3 min, to 50% in 2 min, to 85% in 15 min, held 3 min, 100 µL/min. Particulars: column: Zorbax Extend-C18 2.1 x 50 mm; eluents: water / acetonitrile, 0.1% formic acid. The essentials:
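Each retention time is based on an adduct peak selected computationally and verified by manual inspection. Measurements used HPLC–quadrupole time-of-flight mass spectrometry in positive and negative ionization mode on mixtures of ~100 pure standards. Chromatography ran on a Zorbax Extend-C18 column (2.1 × 50 mm, 1.8 μm) at 100 μL/min with water and acetonitrile, each containing 0.1% formic acid, and dead and dwell volumes of 40 μL and 900 μL.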
`CC(C)Cc1nc(-c2ccccc2)oc1CC(=O)NCc1ccc(F)c(Cl)c1` registered an RP-LC retention time of 1080 s.

As to `Cc1nc([C@@H]2CN(C(=O)c3cccn3C)C[C@H]2C(N)=O)n[nH]1`, the RP-LC retention time turned out to be 576 s.

As for `COc1ccc(C(=O)N2CCCn3cc(-c4ccccc4F)nc32)cn1`, the RP-LC retention time was found to be 587 s.

The compound `Cc1nn(CC(=O)NCc2ccccn2)c(=O)c2nc(-c3ccccc3)sc12` had an RP-LC retention time of 633 s.

As to `Cc1cc(C)cc(NS(=O)(=O)c2cn(CC(C)C)c3ncccc23)c1`, the RP-LC retention time came out at 763 s.

For the compound `CCCCNC(=O)Cc1c(C)nn(-c2nc(-c3ccc(Cl)cc3)cs2)c1C`, the RP-LC retention time amounted to 1180 s.

Take `Cc1ccc(NS(=O)(=O)c2c(C)nc3sc4cc(C)ccc4n3c2=O)cc1`: the RP-LC retention time was 1160 s.

In turn, `CCCN1C(=O)c2c(C(=O)NCCc3ccccc3)ncn2CC1(C)C(=O)NC1CCCC1` (stereo not drawn) came in with an RP-LC retention time of 860 s.

Turning to `COc1cccc(S(=O)(=O)N2C[C@@H]3C[C@H]2C[C@@H]3NC(=O)c2ccccc2)c1`, the RP-LC retention time turned out to be 840 s.

On to `CCc1nc(OCC(=O)NCc2ccc(SC)cc2)c2ccccc2n1`, for which the RP-LC retention time was 814 s.

`CCCc1noc(-c2ccc(-n3cnc(C(=O)NC4CCCCCC4)c3)nc2)n1` returned an RP-LC retention time of 1070 s.

In turn, `COc1ccc(CNC(=O)CN2C(=O)C3CCCCN3c3ccc(C(=O)N(C)C)cc32)c(OC)c1` (stereo not drawn) returned an RP-LC retention time of 756 s.

The compound `COc1ccc(-c2ncc(C(=O)Nc3ccc(OC)c(Cl)c3)c(-c3ccncc3)n2)cc1` had an RP-LC retention time of 902 s.

On to `COc1cccc(CNC(=O)C2CCCN(c3ncnc4c3oc3ccccc34)C2)c1` (stereo not drawn), for which the RP-LC retention time amounted to 734 s.

In the case of `Cc1ccc2nc3sc(C(=O)NCC4COc5ccccc5O4)cc3c(=O)n2c1` (stereo not drawn), the RP-LC retention time is 819 s.

`CCCC(=O)NC1CCN(c2ccc(C)cc2)C1=O` (stereo not drawn) showed an RP-LC retention time of 714 s.

`Cc1cccc(CS(=O)(=O)NCCCN2CCN(c3ccccc3)CC2)c1`: the RP-LC retention time was 588 s.

The compound `COc1ccc(S(=O)(=O)N2CC=C(c3cn(C(C)C)c4ncccc34)CC2)cc1` gave an RP-LC retention time of 1070 s.

`COc1ccc(OC)c(Nc2nc(NCCO)c3cnn(C)c3n2)c1` gave an RP-LC retention time of 609 s.

As to `CCCN1C(=O)c2cc(C(=O)NCc3ccc(F)cc3)nn2CC1(C)C(=O)NC1CCCC1` (stereo not drawn), the RP-LC retention time was found to be 824 s.

`CCn1cc(CN2CCC(C(=O)NC3CCCc4ccccc43)CC2)c2cc(OC)ccc21` (stereo not drawn): the RP-LC retention time amounted to 760 s.

Take `O=C(CSc1nccn1-c1cccc(Cl)c1)Nc1ccccc1F`: the RP-LC retention time turned out to be 841 s.

In the case of `COc1ccc(NC(=O)N2CCC3(C2)C(=O)Nc2ccccc23)cc1OC` (stereo not drawn), the RP-LC retention time turned out to be 676 s.

Regarding `CS(=O)(=O)c1cccc(C(=O)Nc2nnc(-c3ccno3)o2)c1`, the RP-LC retention time came out at 603 s.

`O=C(NCC1CCCO1)C1CCN(c2cnn(Cc3ccccc3)c(=O)c2)CC1` (stereo not drawn): the RP-LC retention time was 667 s.

`CCOC(=O)c1c(C)[nH]c(CCC(=O)Nc2ccc(F)cc2F)c1C` displayed an RP-LC retention time of 905 s.

With `CC(C)(C)c1ccc(S(=O)(=O)N2CCC3(CC2)NCCN=C3NCc2ccccc2)cc1`, the RP-LC retention time came to 854 s.

`CCC1Oc2ccc(S(=O)(=O)N3CCC(C(=O)Nc4cc(Cl)ccc4C)CC3)cc2NC1=O` (stereo not drawn): the RP-LC retention time came out at 948 s.

Compound `O=C(NCc1ccccn1)C1CCCN(c2ccc3cc(S(=O)(=O)N4CCCC4)ccc3n2)C1` (stereo not drawn) yielded an RP-LC retention time of 585 s.

Take `Cc1ccc(F)cc1-n1cc(C(=O)O)c2ccccc2c1=O`: the RP-LC retention time is 791 s.

`CCn1c(N2CCCC(C(=O)NCc3ccc(F)cc3)C2)cc(=O)n(C)c1=O` (stereo not drawn): the RP-LC retention time is 776 s.

The compound `CCn1cc(S(=O)(=O)Nc2ccc(F)cc2Cl)c2cccnc21` registered an RP-LC retention time of 870 s.

Turning to `Cc1noc(C)c1S(=O)(=O)N(Cc1cccs1)Cc1cccn1C`, the RP-LC retention time was 1000 s.

`O=C(N[C@@H]1CN(c2ncccn2)C[C@H]1CO)C1CC=CC1` had an RP-LC retention time of 567 s.

The compound `CCc1ccc(NC(=O)c2cc3c(=O)n(CC)ccc3n2C)cc1` came in with an RP-LC retention time of 753 s.

`CC(Oc1ccccc1)C(=O)N(C)CC1(C)CCOCC1` (stereo not drawn) showed an RP-LC retention time of 685 s.

The compound `CCn1cc(-c2ccc(C)cc2)cc1C(=O)NCCCN1CCCC1=O` showed an RP-LC retention time of 856 s.

Regarding `CCOc1ccc(S(=O)(=O)N2CCC(C(=O)NC3CCCC3)CC2)cc1`, the RP-LC retention time stood at 632 s.

Regarding `CCCCCn1c(=O)c2ccccc2n(Cc2nc(-c3ccc(OC)cc3)no2)c1=O`, the RP-LC retention time stood at 1210 s.

In turn, `CCc1ccc(N2C(=O)C3N=NN(Cc4nc(-c5ccc(Br)cc5)no4)C3C2=O)cc1` (stereo not drawn) showed an RP-LC retention time of 1130 s.

`CCN1C(=O)c2cccnc2Sc2cc(NC(=O)c3ccc(Cl)cc3OC)ccc21` showed an RP-LC retention time of 804 s.

Take `CC(C)C(=O)Nc1ccc(-n2cnc(C(=O)NCc3ccccc3)c2)nc1`: the RP-LC retention time is 738 s.

Turning to `O=S(=O)(c1ccc(Cl)c(-c2nnc(-c3ccccc3)o2)c1)N1CCCC1`, the RP-LC retention time turned out to be 1040 s.

On to `CCOC(=O)c1ccc(NC(=O)CN2CCC(C)CC2)cc1`, for which the RP-LC retention time was 561 s.

Turning to `Cc1ccc(-n2ncc3c(NCCCN(C)C)ncnc32)cc1C`, the RP-LC retention time is 625 s.

Consider `CCCNC(=O)C1CCN(c2ccc(SCC(=O)NCc3ccc4c(c3)OCO4)nn2)CC1`, for which the RP-LC retention time came out at 606 s.

Compound `CCOc1ccc(-c2nc3ncccn3c2NC2CCCCC2)cc1` yielded an RP-LC retention time of 808 s.

For `O=C(CSc1ncnc2c1[nH]c1ccc(Br)cc12)NC1CCCCC1`, the RP-LC retention time was 957 s.

The compound `O=C(N1CCN(S(=O)(=O)c2cccnc2)CC1)N1C[C@H]2C[C@H](C1)[C@H]1CCCC(=O)N1C2` returned an RP-LC retention time of 629 s.

For the compound `Cc1ccc(-n2c(N3CCCC(C(=O)Nc4ccc(C)c(Cl)c4)C3)nc3ccsc3c2=O)cc1` (stereo not drawn), the RP-LC retention time came out at 1160 s.

In the case of `CCC1CN2C=Nc3oc(C)c(C(=O)Nc4ccc(C)c(F)c4)c3C2=N1` (stereo not drawn), the RP-LC retention time was found to be 689 s.

Compound `O=C(CSc1ccc(Cl)cc1)Nc1nnc(-c2cccc([N+](=O)[O-])c2)s1` showed an RP-LC retention time of 968 s.

Turning to `CC(C)CCN1CC(=O)N(Cc2ccc(N3CCOCC3)cc2)C(c2cccs2)C1=O` (stereo not drawn), the RP-LC retention time is 836 s.

`COc1ccc(CCNC(=O)c2ccc3c(c2)NC(=O)C2CCCCN32)cc1OC` (stereo not drawn) returned an RP-LC retention time of 731 s.

Take `Cc1ccc(OCC(=O)NCC2(C)CCOCC2)cc1`: the RP-LC retention time was found to be 784 s.

The compound `O=C(CCc1c(-c2ccc(Cl)cc2)nc2ccccn12)NCc1ccccn1` showed an RP-LC retention time of 571 s.

Regarding `Cc1ccc(C)c(Nc2c(-c3ccc(Cl)cc3)nc3ncccn23)c1`, the RP-LC retention time turned out to be 954 s.

Take `CCN1CCn2cc(S(=O)(=O)Nc3cc(C)ccc3F)cc2C1=O`: the RP-LC retention time came out at 751 s.

On to `Cc1[nH]c(C(=O)N2CCCC(C(=O)N3CCN(C4CCCCC4)CC3)C2)c(C)c1C(=O)OC(C)C` (stereo not drawn), for which the RP-LC retention time turned out to be 645 s.

Compound `Cc1ccc(C(=O)Nc2nc3c(s2)CN(S(=O)(=O)c2ccccc2)CC3)cc1Br` registered an RP-LC retention time of 1110 s.

Compound `CCc1cnc2c(c1SCC(=O)N(CC)CC)c(=O)n(C)c(=O)n2C` showed an RP-LC retention time of 786 s.

As to `CC(C)(C)S(=O)(=O)c1ccc(N2CCN(Cc3ccccc3)CC2)nn1`, the RP-LC retention time was found to be 566 s.

Take `Fc1cccc(-c2noc(-c3ccc(N4CCN(CCOc5ccc(Cl)cc5)CC4)nc3)n2)c1`: the RP-LC retention time is 920 s.

Turning to `Cc1noc(-c2cc(=O)n(CC(=O)Nc3ccc4c(c3)OCCO4)c3ccccc23)n1`, the RP-LC retention time stood at 803 s.

`Cc1ccc(-c2cnn3c(N4CCN(c5cccc(C)n5)CC4)cc(C)nc23)cc1`: the RP-LC retention time is 776 s.

The compound `c1ccc(-c2cc3ccccc3[nH]2)cc1` returned an RP-LC retention time of 1090 s.

On to `Cc1nn(C(C)C(=O)NCCN(C)Cc2ccccc2)c(=O)c2c(C)n(-c3ccccc3)nc12` (stereo not drawn), for which the RP-LC retention time worked out at 686 s.

With `CCOC(=O)C1=C(CN2CCN(C)CC2)NC(=O)NC1c1ccc(OC(C)C)cc1` (stereo not drawn), the RP-LC retention time was found to be 636 s.

`CCN(CC)CCNC(=O)CCc1nc2c(C)nn(-c3ccccc3)c2n(C)c1=O` displayed an RP-LC retention time of 585 s.

In turn, `CSc1ccc(CNC(=O)C2CCCN(c3cc(=O)n(C)c(=O)n3C)C2)cc1` (stereo not drawn) showed an RP-LC retention time of 704 s.

Turning to `CCC1CCCCN1c1cc(C)nc2nc(-c3ccc(C)cc3)nn12` (stereo not drawn), the RP-LC retention time turned out to be 1160 s.

Compound `O=C(Nc1cccc(Br)c1)c1cccn1Cc1noc(C2CC2)n1` gave an RP-LC retention time of 1040 s.

Regarding `COc1ccc(Nc2nc(-c3nnn(-c4cc(Cl)c(OC)cc4OC)c3C)ns2)cc1`, the RP-LC retention time came to 1020 s.

The compound `COc1ccc(NS(=O)(=O)c2cc(-c3cc(C(F)(F)F)on3)sc2C)cc1OC` gave an RP-LC retention time of 1020 s.

With `Cc1nn(-c2ccc(F)cc2)c(C)c1S(=O)(=O)N1CCC(C(=O)N2CCN(C)CC2)CC1`, the RP-LC retention time was found to be 625 s.

In turn, `CCc1cc(N2CCN(C(=O)c3ccc4c(c3)OCO4)CC2)nc2nnc(C)n12` displayed an RP-LC retention time of 607 s.

In turn, `COc1ccc(C)cc1NC(=O)Cn1nc2c(Oc3ccccc3C)nccn2c1=O` registered an RP-LC retention time of 896 s.

Regarding `COc1ccc(S(=O)(=O)NC2CCN(c3ccc(=O)n(CC4CC4)n3)C2)cc1Cl` (stereo not drawn), the RP-LC retention time came out at 800 s.
